Test results reported in patent US9738642B2, “Triazolopyridine ether derivatives and their use in neurological and pyschiatric disorders” (BRISTOL-MYERS SQUIBB COMPANY, priority 2013, dated 2017).
Where a name gives a salt, the structure may show the parent alone.

Target: T1, human mGluR2 (Homo sapiens, UniProt Q14416)
T1 construct: expressed in transfected cells; host or cells: HEK293 clonal line
Experiment: mGluR2 cAMP assay
Assay type: cell-based
Conditions: clonally expressed human mGluR2 in HEK293; 1 μM forskolin, 1 μM LY-341495, 30 min; CISBIO cAMP kit; read-out: EC50 (nM), activity in mGluR2 cAMP assay
Description: On the day of the assay, media was removed, cells washed with PBS, cells harvested and pelleted by centrifugation. Cell pellets were resuspended in stimulation buffer without forskolin and counted. […] A standard curve was created using a top concentration of cAMP of 1 μM in the stimulation buffer, 1:3 dilutions over 14 points in the absence of cells. […] In house software converted the fluorescence value ratios to units of cAMP concentration, which is then used to calculate % inhibition for each test compound. MGluR2 cAMP Assay Materials and Methods. […] Buffer without forskolin was used as a negative control. Solutions of D2 and cryptate detection reagents from the CISBIO dynamic cAMP kit (62AM4PEJ) were diluted 1:40 in lysis buffer. Lysis buffer consisted of 50 mM Phosphate Buffer pH 7.0, 800 mM Potassium Fluoride, 0.2% BSA, and 1.0% Triton. Assay reaction was terminated by addition of detection reagents in lysis buffer. One hour later, plates were read on a PE Viewlux. Data was extracted, and concentration response curves generated by fitting the data to a standard 4 parameter logistic equation from which EC50 values were determined.

T1 sequence (Q14416 19-872): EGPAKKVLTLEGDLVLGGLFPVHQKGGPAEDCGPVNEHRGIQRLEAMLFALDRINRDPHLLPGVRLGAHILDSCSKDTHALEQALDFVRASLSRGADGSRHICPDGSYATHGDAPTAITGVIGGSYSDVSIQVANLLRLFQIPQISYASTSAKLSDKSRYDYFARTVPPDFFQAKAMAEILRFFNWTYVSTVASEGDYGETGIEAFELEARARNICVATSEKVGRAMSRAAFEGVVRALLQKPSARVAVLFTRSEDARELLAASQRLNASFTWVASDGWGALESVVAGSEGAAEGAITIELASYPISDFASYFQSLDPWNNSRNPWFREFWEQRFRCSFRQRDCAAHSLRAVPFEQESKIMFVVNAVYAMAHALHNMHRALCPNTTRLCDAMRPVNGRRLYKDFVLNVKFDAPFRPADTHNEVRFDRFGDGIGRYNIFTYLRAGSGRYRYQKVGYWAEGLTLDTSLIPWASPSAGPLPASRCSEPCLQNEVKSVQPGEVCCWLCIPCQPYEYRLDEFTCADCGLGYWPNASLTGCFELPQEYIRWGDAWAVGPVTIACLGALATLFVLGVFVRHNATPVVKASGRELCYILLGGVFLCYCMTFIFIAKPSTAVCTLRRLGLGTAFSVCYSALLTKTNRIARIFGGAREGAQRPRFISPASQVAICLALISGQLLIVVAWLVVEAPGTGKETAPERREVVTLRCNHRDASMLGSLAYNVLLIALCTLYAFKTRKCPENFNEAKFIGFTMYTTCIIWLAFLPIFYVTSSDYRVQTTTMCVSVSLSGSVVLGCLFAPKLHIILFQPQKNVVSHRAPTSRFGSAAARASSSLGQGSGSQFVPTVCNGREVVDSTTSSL

| SMILES | EC50 [nM] |
| --- | --- |
| Fc1ccc(C2CC2COc2ccn3c(CC4CC4)nnc3c2C(F)(F)F)cc1 (single isomer, unassigned) [Example 78] | 2.6 |
| Fc1ccc([C@@H]2C[C@H]2COc2ccn3c(CC4CC4)nnc3c2C(F)(F)F)cc1 (single isomer, unassigned) [Example 79] | 1.1 |
| CO[C@]1(c2ccc(F)cc2)CC[C@H](Oc2ccn3c(C4CC4(F)F)nnc3c2C(F)(F)F)CC1 (single isomer, unassigned) [Example 87, TFA salt] | 61 |
| CO[C@]1(c2ccc(F)cc2)CC[C@H](Oc2ccn3c(C4CC4(F)F)nnc3c2C(F)(F)F)CC1 (single isomer, unassigned) [Example 88, TFA salt] | 3.1 |
| FC(F)(F)c1c(OCC2(c3ccccc3)CCCCC2)ccn2c(CC3CC3)nnc12 [Example 1, 3-(Cyclopropylmethyl)-7-((1-phenylcyclohexyl)methoxy)-8-(trifluoromethyl)-[1,2,4]triazolo[4,3-a]pyridine] | 1.8 |
| CC(C)(COc1ccn2c(CC3CC3)nnc2c1C(F)(F)F)c1ccc(Cl)cc1 [Example 2, 7-(2-(4-Chlorophenyl)-2-methylpropoxy)-3-(cyclopropylmethyl)-8-(trifluoromethyl)-[1,2,4]triazolo[4,3-a]pyridine] | 5.5 |
| N#Cc1c(OC[C@H]2C[C@@H]2c2ccc(F)cc2)ccn2c(CC3CC3)nnc12 [Example 3, 3-(Cyclopropylmethyl)-7-(((1S,2S)-2-(4-fluorophenyl)cyclopropyl)methoxy)-[1,2,4]triazolo[4,3-a]pyridine-8-carbonitrile] | 11 |
| CC(C)(COc1ccn2c(CC3CC3)nnc2c1C(F)(F)F)c1ccc(F)cc1 [Example 6, 3-(Cyclopropylmethyl)-7-(2-(4-fluorophenyl)-2-methylpropoxy)-8-(trifluoromethyl)-[1,2,4]triazolo[4,3-a]pyridine] | 11 |
| CC(C)(COc1ccn2c(CC(F)(F)F)nnc2c1C(F)(F)F)c1ccc(Cl)cc1 [Example 7, 7-(2-(4-Chlorophenyl)-2-methylpropoxy)-3-(2,2,2-trifluoroethyl)-8-(trifluoromethyl)-[1,2,4]triazolo[4,3-a]pyridine] | 13 |
| CC(C)(COc1ccn2c(CC3CC3)nnc2c1C(F)(F)F)Oc1ccc(F)cc1 [Example 8, 3-(Cyclopropylmethyl)-7-(2-(4-fluorophenoxy)-2-methylpropoxy)-8-(trifluoromethyl)-[1,2,4]triazolo[4,3-a]pyridine] | 11 |
| CC(C)(COc1ccn2c(CC(F)(F)F)nnc2c1C(F)(F)F)Oc1ccc(F)cc1 [Example 11, 7-(2-(4-Fluorophenoxy)-2-methylpropoxy)-3-(2,2,2-trifluoroethyl)-8-(trifluoromethyl)-[1,2,4]triazolo[4,3-a]pyridine] | 18 |
| CC(C)(COc1ccn2c(CC3CC3)nnc2c1C(F)(F)F)Oc1ccc(Cl)cc1 [Example 13, 7-(2-(4-Chlorophenoxy)-2-methylpropoxy)-3-(cyclopropylmethyl)-8-(trifluoromethyl)-[1,2,4]triazolo[4,3-a]pyridine] | 13 |
| CC(C)(COc1ccn2c(CC3CC3)nnc2c1C(F)(F)F)Oc1ccc(F)cc1F [Example 16, 3-(Cyclopropylmethyl)-7-(2-(2,4-difluorophenoxy)-2-methylpropoxy)-8-(trifluoromethyl)-[1,2,4]triazolo[4,3-a]pyridine] | 15 |
| N#C[C@]1(c2ccc(F)cc2)CC[C@H](Oc2ccn3c(CC4CC4)nnc3c2C(F)(F)F)CC1 [Example 17, (1s,4s)-4-(3-(Cyclopropylmethyl)-8-(trifluoromethyl)-[1,2,4]triazolo[4,3-a]pyridin-7-yloxy)-1-(4-fluorophenyl)cyclohexanecarbonitrile] | 1.4 |
| CCOCc1nnc2c(C(F)(F)F)c(OCC(C)(C)Oc3ccc(Cl)cc3)ccn12 [Example 18, 7-(2-(4-Chlorophenoxy)-2-methylpropoxy)-3-(ethoxymethyl)-8-(trifluoromethyl)-[1,2,4]triazolo[4,3-a]pyridine] | 5.9 |
| CO[C@]1(c2ccc(F)cc2)CC[C@H](Oc2ccn3c(CC4CC4)nnc3c2C(F)(F)F)CC1 [Example 19, 3-(Cyclopropylmethyl)-7-((1s,4s)-4-(4-fluorophenyl)-4-methoxycyclohexyloxy)-8-(trifluoromethyl)-[1,2,4]triazolo[4,3-a]pyridine] | 0.3 |

| SMILES | EC50 [nM] |
| --- | --- |
| FC(F)(F)c1c(O[C@H]2CC[C@H](c3ccccc3)CC2)ccn2c(CC3CC3)nnc12 [Example 20, 3-(Cyclopropylmethyl)-7-((1r,4r)-4-phenylcyclohexyloxy)-8-(trifluoromethyl)-[1,2,4]triazolo[4,3-a]pyridine] | 0.4 |
| CC(C)(COc1ccn2c(COCC(F)(F)F)nnc2c1C(F)(F)F)Oc1ccc(Cl)cc1 [Example 22, 7-(2-(4-Chlorophenoxy)-2-methylpropoxy)-3-((2,2,2-trifluoroethoxy)methyl)-8-(trifluoromethyl)-[1,2,4]triazolo[4,3-a]pyridine, TFA salt] | 4.9 |
| COCc1nnc2c(C(F)(F)F)c(OCC(C)(C)Oc3ccc(Cl)cc3)ccn12 [Example 23, 7-(2-(4-Chlorophenoxy)-2-methylpropoxy)-3-(methoxymethyl)-8-(trifluoromethyl)-[1,2,4]triazolo[4,3-a]pyridine, TFA salt] | 120 |
| O[C@]1(c2ccc(F)c(F)c2)CC[C@H](Oc2ccn3c(CC4CC4)nnc3c2C(F)(F)F)CC1 [Example 26, (1s,4s)-4-(3-(Cyclopropylmethyl)-8-(trifluoromethyl)-[1,2,4]triazolo[4,3-a]pyridin-7-yloxy)-1-(3,4-difluorophenyl)cyclohexanol, TFA salt] | 0.8 |
| FC(F)(F)COCc1nnc2c(C(F)(F)F)c(O[C@H]3CC[C@H](c4ccccc4)CC3)ccn12 [Example 27, 7-((1r,4r)-4-Phenylcyclohexyloxy)-3-((2,2,2-trifluoroethoxy)methyl)-8-(trifluoromethyl)-[1,2,4]triazolo[4,3-a]pyridine] | 0.6 |
| CO[C@]1(c2ccc(F)c(F)c2)CC[C@H](Oc2ccn3c(CC4CC4)nnc3c2C(F)(F)F)CC1 [Example 28, 3-(Cyclopropylmethyl)-7-((1s,4s)-4-(3,4-difluorophenyl)-4-methoxycyclohexyloxy)-8-(trifluoromethyl)-[1,2,4]triazolo[4,3-a]pyridine] | 0.7 |
| FC(F)(F)c1c(OCC2(c3ccc(Cl)cc3)CC2)ccn2c(CC3CC3)nnc12 [Example 29, 7-((1-(4-Chlorophenyl)cyclopropyl)methoxy)-3-(cyclopropylmethyl)-8-(trifluoromethyl)-[1,2,4]triazolo[4,3-a]pyridine] | 13 |
| Fc1ccc(C2(COc3ccn4c(CC5CC5)nnc4c3C(F)(F)F)CC2)cc1 [Example 30, 3-(Cyclopropylmethyl)-7-((1-(4-fluorophenyl)cyclopropyl)methoxy)-8-(trifluoromethyl)-[1,2,4]triazolo[4,3-a]pyridine] | 16 |
| FC(F)(F)c1c(OC[C@@H]2C[C@H]2c2ccc(Cl)cc2)ccn2c(CC3CC3)nnc12 [Example 33, 7-(((1R,2R)-2-(4-Chlorophenyl)cyclopropyl)methoxy)-3-(cyclopropylmethyl)-8-(trifluoromethyl)-[1,2,4]triazolo[4,3-a]pyridine] | 4 |
| FC(F)(F)c1c(OC[C@H]2C[C@@H]2c2ccc(Cl)cc2)ccn2c(CC3CC3)nnc12 [Example 34, 7-(((1S,2S)-2-(4-Chlorophenyl)cyclopropyl)methoxy)-3-(cyclopropylmethyl)-8-(trifluoromethyl)-[1,2,4]triazolo[4,3-a]pyridine] | 1.6 |
| N#C[C@]1(c2cccc(F)c2)C[C@H](Oc2ccn3c(CC4CC4)nnc3c2C(F)(F)F)C1 [Example 46, (1s,3s)-3-(3-(Cyclopropylmethyl)-8-(trifluoromethyl)-[1,2,4]triazolo[4,3-a]pyridin-7-yloxy)-1-(3-fluorophenyl)cyclobutanecarbonitrile] | 0.5 |
| N#C[C@]1(c2ccc(F)cc2)C[C@H](Oc2ccn3c(CC4CC4)nnc3c2C(F)(F)F)C1 [Example 50, (1s,3s)-3-(3-(Cyclopropylmethyl)-8-(trifluoromethyl)-[1,2,4]triazolo[4,3-a]pyridin-7-yloxy)-1-(4-fluorophenyl)cyclobutanecarbonitrile] | 2.7 |
| Fc1ccc(C2(COc3ccn4c(CC5CC5)nnc4c3C(F)(F)F)CC2)c(F)c1 [Example 51, 3-(Cyclopropylmethyl)-7-((1-(2,4-difluorophenyl)cyclopropyl)methoxy)-8-(trifluoromethyl)-[1,2,4]triazolo[4,3-a]pyridine] | 43 |
| Fc1ccc([C@H]2C[C@@H]2COc2ccn3c(CC(F)(F)F)nnc3c2C(F)(F)F)cc1 [Example 52, 7-(((1S,2S)-2-(4-Fluorophenyl)cyclopropyl)methoxy)-3-(2,2,2-trifluoroethyl)-8-(trifluoromethyl)-[1,2,4]triazolo[4,3-a]pyridine] | 1.6 |
| COc1ccccc1[C@]1(C#N)C[C@@H](Oc2ccn3c(CC4CC4)nnc3c2C(F)(F)F)C1 [Example 53, (1s,3s)-3-(3-(Cyclopropylmethyl)-8-(trifluoromethyl)-[1,2,4]triazolo[4,3-a]pyridin-7-yloxy)-1-(2-methoxyphenyl)cyclobutanecarbonitrile] | 0.3 |
